# Reference: US10239832B2, “N-(1-hydroxy-3-(pyrrolidinyl)propan-2-yl)pyrrolidine-3-carboxamide derivatives as glucosylceramide synthase inhibitors” (BIOMARIN PHARMACEUTICAL INC., priority 2013, dated 2019)
# Target: T1, GCS (Canis lupus familiaris, UniProt A0A8I3MXG6)
# T1 construct: endogenous in cells; host or cells: MDCK (Madin-Darby canine kidney) cells, whole-cell lysate
# T1 sequence (A0A8I3MXG6 1-394): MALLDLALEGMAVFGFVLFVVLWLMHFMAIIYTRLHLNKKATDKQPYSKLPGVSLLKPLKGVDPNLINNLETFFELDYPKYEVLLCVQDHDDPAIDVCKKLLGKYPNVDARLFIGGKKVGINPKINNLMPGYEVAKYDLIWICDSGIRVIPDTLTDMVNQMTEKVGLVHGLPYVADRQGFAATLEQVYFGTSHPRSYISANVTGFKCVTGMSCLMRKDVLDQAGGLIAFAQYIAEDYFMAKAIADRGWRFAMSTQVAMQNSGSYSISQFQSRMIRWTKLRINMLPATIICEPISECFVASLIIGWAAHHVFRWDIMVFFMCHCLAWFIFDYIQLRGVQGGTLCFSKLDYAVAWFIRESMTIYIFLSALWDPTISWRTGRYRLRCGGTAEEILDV
# Test: GCS enzymatic assay (MDCK cell lysate, NBD-ceramide to glucosylceramide, LC/MS)
# Type: biochemical, canine
# Settings: Table 2, the table does not say which of the assays; for Data Range (% inhibition): class symbols D, E, F, NA (not active); for IC50: class symbols A, B, C, read-out: Data Range (IC50 values)
# Experimental: This assay was modified based on the study by Larsen et al. (J. Lipid Res. 2011, 53, 282). Madin-Darby canine kidney (MDCK) cell lysate was prepared using M-PER Mammalian Protein Extraction Reagent (Thermal Scientific) in the presence of a protease inhibitor cocktail (Roche). Protein concentration was determined using BCA assay kit (Pierce). […] 0.1% DMSO was used as mock treatment or control. The reaction was terminated by adding 100 μL acetonitrile solution and subjected to LC/MS analysis.
# The quantitative analysis of NBD-Ceramide and glucosylceramide was performed on a Shimadzu ultra-fast liquid chromatography (Shimadzu, Japan) coupled with API 4000 triple quadrupole mass spectrometer (Applied Biosystems, Concord, Ontario, Canada). Sample separation was conducted on a Waters Xbridge™ BEH130 C18, 100 mm×4.6 mm i.d, 3.5 μm (Milford, Mass., USA). The mobile phase consisted of water and acetonitrile supplemented with 0.1% formic acid (v/v). The flow rate was 1.0 mL/min. The initial mobile phase was 20% acetonitrile and was ramped in a linear fashion to 50% acetonitrile in 0.4 min. From 0.4 to 1.5 min, the gradient was ramped to 98% acetonitrile, and then was held at […] until 8.0 min. Acetonitrile was reset to 20% in 1.5 min, and maintained until 10.0 min. The total run time was 10.0 min. The MS/MS detection was performed in ESI positive mode. The mass transition of NBD-Ceramide was m/z 576.36→558.40 under the collision energy of 15 V, and the mass transition of glucosylceramide was m/z 738.35→558.40 under 21V collision energy. The cell lysate was diluted with equal volume of acetonitrile. Aliquots of 50 μL diluted samples were added to 1.5 mL tubes, and 100 μL of acetonitrile containing internal standard (100 ng/mL tolbutamide) were added for protein precipitation. The mixture were vortexed and then centrifuged at 13000 rpm for 10 min. 70 μL of supernatant were mixed with 140 μL of H2O and the final solution were injected for LC/MS/MS analysis and IC50's and/or percent inhibitions calculated.
SMILES,Data Range (% inhibition),IC50 [nM]
"O=C(N[C@H](CN1CCCC1)[C@H](O)c1ccc2c(c1)OCCO2)[C@H]1CCN(CC2(O)CCOCC2)C1 [Compound 5E, (S)-N-((1R,2R)-1-(2,3-dihydrobenzo[b][1,4]dioxin-6-yl)-1-hydroxy-3-(pyrrolidin-1-yl)propan-2-yl)-1-((4-hydroxytetrahydro-2H-pyran-4-yl)methyl)pyrrolidine-3-carboxamide]",F (1-49% (or less than 50%)),–
"O=C(N[C@H](CN1CCCC1)[C@H](O)c1ccc(OC(F)F)cc1)[C@@H]1CCN(c2ccccc2)C1 [Compound 161, (R)-N-((1R,2R)-1-(4-(difluoromethoxy)phenyl)-1-hydroxy-3-(pyrrolidin-1-yl)propan-2-yl)-1-phenylpyrrolidine-3-carboxamide]",–,1 to 30
"O=C(N[C@H](CN1CCCC1)[C@H](O)c1ccc(OC2COC2)nc1)[C@@H]1CCN(c2ccc(Cl)cc2)C1 [Compound 62, (R)-1-(4-chlorophenyl)-N-((1R,2R)-1-hydroxy-1-(6-(oxetan-3-yloxy)pyridin-3-yl)-3-(pyrrolidin-1-yl)propan-2-yl)pyrrolidine-3-carboxamide]",NA (not active—a negative value was generated for % inhibition),–
"O=C(N[C@H](CN1CCCC1)[C@H](O)c1cc(F)c2c(c1)OCCO2)[C@H]1CCN(c2ccc3ccsc3c2)C1 [Compound 97C, (S)-1-(benzo[b]thiophen-6-yl)-N-((1R,2R)-1-(8-fluoro-2,3-dihydrobenzo[b][1,4]dioxin-6-yl)-1-hydroxy-3-(pyrrolidin-1-yl)propan-2-yl)pyrrolidine-3-carboxamide]",E (50-74% (or less than 75%)),–
"O=C(N[C@H](CN1CCCC1)[C@H](O)c1ccc2c(c1)OCCO2)[C@@H]1CCN(C2CCOCC2)C1 [Compound 9, (R)-N-((1R,2R)-1-(2,3-dihydrobenzo[b][1,4]dioxin-6-yl)-1-hydroxy-3-(pyrrolidin-1-yl)propan-2-yl)-1-(tetrahydro-2H-pyran-4-yl)pyrrolidine-3-carboxamide]",NA (not active—a negative value was generated for % inhibition),–
"CC1(C)CCc2ccc(N3CC[C@H](C(=O)N[C@H](CN4CCCC4)[C@H](O)c4ccc5c(c4)OCCO5)C3)cc2O1 [Compound 71F, (S)-N-((1R,2R)-1-(2,3-dihydrobenzo[b][1,4]dioxin-6-yl)-1-hydroxy-3-(pyrrolidin-1-yl)propan-2-yl)-1-(2,2-dimethylchroman-7-yl)pyrrolidine-3-carboxamide]",F (1-49% (or less than 50%)),–
"O=C(N[C@H](CN1CCCC1)[C@H](O)c1ccc2c(c1)OCCO2)[C@H]1CCN(c2ccc3ccccc3n2)C1 [Compound 72B, (S)-N-((1R,2R)-1-(2,3-dihydrobenzo[b][1,4]dioxin-6-yl)-1-hydroxy-3-(pyrrolidin-1-yl)propan-2-yl)-1-(quinolin-2-yl)pyrrolidine-3-carboxamide]",F (1-49% (or less than 50%)),–
"O=C(N[C@H](CN1CCCC1)[C@H](O)c1cc(F)c2c(c1)OCCO2)[C@H]1CCN(c2ccc3c(c2)CCCC3)C1 [Compound 93A, (S)-N-((1R,2R)-1-(8-fluoro-2,3-dihydrobenzo[b][1,4]dioxin-6-yl)-1-hydroxy-3-(pyrrolidin-1-yl)propan-2-yl)-1-(5,6,7,8-tetrahydronaphthalen-2-yl)pyrrolidine-3-carboxamide]",E (50-74% (or less than 75%)),–
"CC(C)Oc1ccc([C@@H](O)[C@@H](CN2CCCC2)NC(=O)[C@H]2CCN(c3ccc(Cl)cc3)C2)cn1 [Compound 29B, (S)-1-(4-chlorophenyl)-N-((1R,2R)-1-hydroxy-1-(6-isopropoxypyridin-3-yl)-3-(pyrrolidin-1-yl)propan-2-yl)pyrrolidine-3-carboxamide]",F (1-49% (or less than 50%)),–
"O=C(N[C@H](CN1CCCC1)[C@H](O)c1ccc2c(c1)OCCO2)C1CCN(c2ccnc(OC3CC3)c2)C1 (stereo partly drawn) [Compound 56D, 1-(2-cyclopropoxypyridin-4-yl)-N-((1R,2R)-1-(2,3-dihydrobenzo[b][1,4]dioxin-6-yl)-1-hydroxy-3-(pyrrolidin-1-yl)propan-2-yl)pyrrolidine-3-carboxamide]",F (1-49% (or less than 50%)),–
"O=C(N[C@H](CN1CCCC1)[C@H](O)c1ccc2c(c1)OCCO2)C1CCN(c2ccc3cc(F)ccc3c2)C1 (stereo partly drawn) [Compound 14C, N-((1R,2R)-1-(2,3-dihydrobenzo[b][1,4]dioxin-6-yl)-1-hydroxy-3-(pyrrolidin-1-yl)propan-2-yl)-1-(6-fluoronaphthalen-2-yl)pyrrolidine-3-carboxamide]",–,1 to 30
"O=C(N[C@H](CN1CCC1)[C@H](O)c1cc(F)c2c(c1)OCCO2)[C@H]1CCN(c2ccc3cc(F)ccc3c2)C1 [Compound 47B, (S)-N-((1R,2R)-3-(azetidin-1-yl)-1-(8-fluoro-2,3-dihydrobenzo[b][1,4]dioxin-6-yl)-1-hydroxypropan-2-yl)-1-(6-fluoronaphthalen-2-yl)pyrrolidine-3-carboxamide]",–,30 to 100
"O=C(N[C@H](CN1CCCC1)[C@H](O)c1ccc2c(c1)OCCO2)C1CCN(c2ccc(Cl)cc2Cl)C1 (stereo in doubt) [Compound 12D, (S)-1-(2,4-dichlorophenyl)-N-((1R,2R)-1-(2,3-dihydrobenzo[b][1,4]dioxin-6-yl)-1-hydroxy-3-(pyrrolidin-1-yl)propan-2-yl)pyrrolidine-3-carboxamide]",F (1-49% (or less than 50%)),–
"O=C(N[C@H](CN1CCCC1)[C@H](O)c1ccc(OC2CC2)nc1)[C@@H]1CCN(c2ccc(F)cc2)C1 [Compound 27, (R)-N-((1R,2R)-1-(6-cyclopropoxypyridin-3-yl)-1-hydroxy-3-(pyrrolidin-1-yl)propan-2-yl)-1-(4-fluorophenyl)pyrrolidine-3-carboxamide]",E (50-74% (or less than 75%)),–
"O=C(N[C@H](CN1CCC1)[C@H](O)c1ccc2c(c1)OCCO2)[C@H]1CCN(c2ccc3cc(F)ccc3c2)C1 [Compound 79B, (S)-N-((1R,2R)-3-(azetidin-1-yl)-1-(2,3-dihydrobenzo[b][1,4]dioxin-6-yl)-1-hydroxypropan-2-yl)-1-(6-fluoronaphthalen-2-yl)pyrrolidine-3-carboxamide]",E (50-74% (or less than 75%)),–
"O=C(N[C@H](CN1CCCC1)[C@H](O)c1ccc2c(c1)OCCO2)[C@@H]1CCN(c2ccc(Cl)cc2)C1 [Compound 1, (R)-1-(4-chlorophenyl)-N-((1R,2R)-1-(2,3-dihydrobenzo[b][1,4]dioxin-6-yl)-1-hydroxy-3-(pyrrolidin-1-yl)propan-2-yl)pyrrolidine-3-carboxamide]",–,1 to 30
"O=C(N[C@H](CN1CCCC1)[C@H](O)c1ccc2c(c1)OCCO2)[C@@H]1CCN(c2ccccn2)C1 [Compound 22, (R)-N-((1R,2R)-1-(2,3-dihydrobenzo[b][1,4]dioxin-6-yl)-1-hydroxy-3-(pyrrolidin-1-yl)propan-2-yl)-1-(pyridin-2-yl)pyrrolidine-3-carboxamide]",E (50-74% (or less than 75%)),–
"CC(C)Oc1ccc([C@@H](O)[C@@H](CN2CCCC2)NC(=O)[C@@H]2CCN(c3ccc(F)cc3)C2)cn1 [Compound 31, (R)-1-(4-fluorophenyl)-N-((1R,2R)-1-hydroxy-1-(6-isopropoxypyridin-3-yl)-3-(pyrrolidin-1-yl)propan-2-yl)pyrrolidine-3-carboxamide]",–,100 to 1000
"O=C(N[C@H](CN1CCCC1)[C@H](O)c1ccc(OCC(F)(F)F)nc1)[C@H]1CCN(c2ccc(F)cc2)C1 [Compound 34A, (S)-1-(4-fluorophenyl)-N-((1R,2R)-1-hydroxy-3-(pyrrolidin-1-yl)-1-(6-(2,2,2-trifluoroethoxy)pyridin-3-yl)propan-2-yl)pyrrolidine-3-carboxamide]",NA (not active—a negative value was generated for % inhibition),–
